The values below are quoted from earlier work in patent publication EP0606683B1, “Means for diagnosis of angiogenic diseases” (INSTITUT FÜR DIAGNOSTIKFORSCHUNG GmbH AN DER FREIEN …, priority 1993, dated 2003).

Data set [1] relates to deendothelisierten Bereichen der Aorta. Particulars: rabbit, abdominal aorta de-endothelialised by balloon catheter; Kurata et al. 1992.
For data set [2], the system named is humanen atheromatösen Koronararterien. As to conditions: in vitro incubation; Dashwood et al., 1991.

In the case of “^125I-Endothelin 1: ^125I-labelled Endothelin 1, ein Polypeptid aus 21 Aminosäuren; used in cited literature studies”, in data set [1], the “Aufnahme von ^125I-Endothelin 1 in den deendothelisierten Bereichen der Aorta” value is listed as “vermehrte Aufnahme”. In addition, in data set [2], the “Bindung von ^125I-Endothelin 1 im Bereich der Tunica media sowie in Bereichen der Vasa vasora” value is on record as “vermehrte Bindung”.
